Consider 13 compounds from patent publication US6534503B1, “Melanocortin receptor-3 ligands to treat sexual dysfunction” (Lion Bioscience AG, priority 1998, dated 2003).

pEC50: −log10 of the molar value.

For one test, the target named is T1, MC-3 (Homo sapiens, UniProt P41968).
T1 construct: expressed in transfected cells; host or cells: HEK 293
The test is described as follows: cAMP assay for melanocortin receptors, HEK 293 cells expressing MC-3. Format: cell-based. Particulars: for Emax: HEK293, percentage of stimulation obtained by adding HP-228 at 0.8 μM, read-out: % of HP-228 (MC-3 stimulatory effect); for pEC50: concentration for 50% of the maximum increase by that ligand. The text has this:
(§1) All cell culture media and reagents were obtained from GibcoBRL (Gaithersburg Md.), except for COSMIC CALF SERUM (HyClone; Logan Utah). HEK 293 cell lines were transfected with human MC receptors hMCR-1, hMCR-3 and hMCR-4 (Gantz et al., Biochem. Biophys. Res. Comm. 200:1214-1220 (1994); Gantz et al., J. Biol. Chem. 268:8246-8250 (1993); Gantz et al. J. Biol. Chem. 268:15174-15179 (1993); Haskell-Leuvano et al., Biochem. Biophys. Res. Comm. 204:1137-1142 (1994)). Vectors for constructing an hMCR-5-expressing cell line were obtained and a line of HEK 293 cells expressing hMCR-5 was constructed (Gantz, supra, 1994). Receptor hMCR-5 has been described previously (Franberg et al., Biochem. Biophys. Res. Commun. 236:489-492 (1997); Chowdhary et al., Cytogenet. Cell Genet. 68:1-2 (1995); Chowdhary et al., Cytogenet. Cell Genet. 68:79-81 (1995)). HEK 293 cells were maintained in DMEM, 25 mM HEPES, 2 mM glutamine, non-essential amino acids, vitamins, sodium pyruvate, 10% COSMIC CALF SERUM, 100 units/ml penicillin, 100 μg/ml streptomycin and 0.2 mg/ml G418 to maintain selection.
(§2) This example describes methods for assaying cAMP production from G-protein-coupled MC receptors.
(§3) HEK 293 cells individually expressing MCR-1, CR-3, MCR-4 or MCR-5 were used. Cells were plated at 20,000 cells per well in a 96-well plate coated with collagen (Beckton Dickinson; Bridgeport N.J.). The next day, cells were pretreated with 88 μl of 0.4 mM 3-isobutyl-1-methylxanthine (IBMX) in low serum medium containing DMEM, 25 mM HEPES and 0.1% COSMIC CALF SERUM. IBMX is an inhibitor of cAMP phosphodiesterase. The pretreatment was carried out for 10 minutes at 37° C.
(§4) Following pretreatment, 12.5 μl of diluted compound was added to the wells and cells were incubated for 15 min at 37° C. Cells were lysed by adding 25 μl saponin lysis buffer (130 mM KCl, 1 mM KH2PO4, 2.5 mM MgSO4, 15 mM sucrose, 20 mM HEPES, 2% BSA, 0.8% saponin) and incubating 2 to 5 minutes. Plates were covered and stored at −20° C.
(§5) The cAMP concentration was determined by ELISA. Briefly, 96 well ELISA plates were coated with goat anti-cAMP antibody in PBS for 12 to 72 hr at 4° C. 50 μl of sample was mixed with 50 μl of cAMP ELISA buffer containing 1% bovine serum albumin, 10% heat inactivated donor horse serum, 1% normal mouse serum and 0.05% TWEEN-20 in PBS, and the diluted sample was added to the coated ELISA plate. Standards of known concentrations of cAMP were added to separate wells. Then, cAMP-conjugated horseradish peroxidase (cAMP-HRP) was added to each well at 25 μl of 16 ng/ml. The plates were incubated for 3 hr at room temperature. Plates were washed and the binding of cAMP-HRP was detected with 3,3′,5,5′-tetramethylbenzidine (TMB) and hydrogen peroxide using standard immunoassay procedures.
(§6) Various compounds were tested for in vitro activity and binding to melanocortin receptors. MC-3 stimulatory effect is also described in terms of percentage of stimulation obtained by adding HP-228 at 0.8 μM. The EC50 values are the concentration of ligand necessary to achieve 50% of the maximum increase by that ligand in an assay. The IC50 values are the concentration giving 50% inhibition of binding of ^125I-HP 467.

In the next test the target is T2, MC-1 (Homo sapiens, UniProt Q01726).
T2 construct: expressed in transfected cells; host or cells: HEK 293
The test is described as follows: cAMP assay for melanocortin receptors, HEK 293 cells expressing MC-1. Format: cell-based. Conditions: concentration for 50% of the maximum increase by that ligand.
From the text: as §1, §2, §3, §4
as §5, with “procedures. […]” for “procedures.”

The next test concerns the target T3, MC-4 (Homo sapiens, UniProt P32245).
T3 construct: expressed in transfected cells; host or cells: HEK 293
The test is described as follows: cAMP assay for melanocortin receptors, HEK 293 cells expressing MC-4. Format: cell-based. Particulars: concentration for 50% of the maximum increase by that ligand.
From the text: as §1, §2, §3, §4, §5, §6

Test [1] deals with male Sprague-Dawley rats. Nature of the test: Effect of oxytocin receptor antagonist vasotocin on erectile effects in rats. Format: in vivo. Particulars: rat. The text has this: (§7) In both examples, male Sprague-Dawley rats, about 200 to 225 g, were acclimated for 5 days in a reverse light:dark cycle room (dark 10 a.m. to 10 p.m.) before being aseptically ICV cannulated. Rats with indwelling ICV cannulae were housed one per cage. After surgery, 4 days were allowed for recovery and 10 days total were allowed for adaptation to the light cycle. Rats were caged individually after surgery and body weights at the time of treatment averaged 250 g. Otherwise, the procedure is essentially the same as in Example II.
Treatment was between 10 a.m. and 1 p.m. […] Vasotocin (Peninsula Laboratories, San Carlos Calif.) was administered ICV at 100 ng/rat. Oxytocin (Sigma, St. Louis Mo.) was administered ICV at 30 ng/rat (10 μl/rat PBS). Ten minutes later, IP injections of HP-228 or vehicle were given. HP-228 was administered IP at 2 mg/kg in 3 ml/kg PBS. One group of animals received ICV injections of vasotocin and oxytocin ICV injections of 5 μl/rat each at double concentrations for a total of 10 μl injected ICV. In this group, the rats received vasotocin first, followed by oxytocin.

Test [2] has as its system male Sprague-Dawley rats. Nature of the test: Effect of dopamine receptor antagonist sulpiride on erectile effects in rats. Format: in vivo. Particulars: rat.
From the text: as §7
Treatment was between 9:30 a.m. and noon. Each animal received an initial IP injection of vehicle (3 ml/kg PBS) or sulpiride. Sulpiride (Sigma) was administered IP at 50 mg/kg (6 ml/kg IP). Ten minutes later, the animals received a final IP injection of HP-228 or vehicle or a SC injection of apomorphine. HP-228 was administered IP at 2 mg/kg in 3 ml/kg PBS. Apomorphine (Sigma) was administered SC at 0.1 mg/kg (1 ml/kg sterile water).

Setting [3] is: single agent plus PBS: oxytocin 30 ng/rat ICV, HP-228 2 mg/kg IP, vasotocin 100 ng/rat ICV.
[4] abbreviates: single agent plus PBS: apomorphine 0.1 mg/kg SC, HP-228 2 mg/kg IP, sulpiride 50 mg/kg IP.
Where [5] appears, read: sulpiride 50 mg/kg IP followed by HP-228 2 mg/kg IP.
The mark [6] stands for this setting: sulpiride 50 mg/kg IP followed by apomorphine 0.1 mg/kg SC.
The mark [7] stands for this setting: vasotocin 100 ng/rat ICV followed by HP-228 2 mg/kg IP.
The mark [8] stands for this setting: vasotocin ICV followed by oxytocin ICV.

T1 sequence (P41968 whole entry): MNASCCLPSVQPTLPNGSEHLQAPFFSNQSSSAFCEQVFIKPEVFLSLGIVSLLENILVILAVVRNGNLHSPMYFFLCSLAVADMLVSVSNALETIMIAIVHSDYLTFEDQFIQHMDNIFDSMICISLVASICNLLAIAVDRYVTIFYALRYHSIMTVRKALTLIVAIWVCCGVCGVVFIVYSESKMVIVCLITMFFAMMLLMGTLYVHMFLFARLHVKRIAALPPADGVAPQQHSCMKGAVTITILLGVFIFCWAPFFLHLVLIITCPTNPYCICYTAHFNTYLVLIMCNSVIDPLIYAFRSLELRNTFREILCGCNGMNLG
T2 sequence (Q01726 whole entry): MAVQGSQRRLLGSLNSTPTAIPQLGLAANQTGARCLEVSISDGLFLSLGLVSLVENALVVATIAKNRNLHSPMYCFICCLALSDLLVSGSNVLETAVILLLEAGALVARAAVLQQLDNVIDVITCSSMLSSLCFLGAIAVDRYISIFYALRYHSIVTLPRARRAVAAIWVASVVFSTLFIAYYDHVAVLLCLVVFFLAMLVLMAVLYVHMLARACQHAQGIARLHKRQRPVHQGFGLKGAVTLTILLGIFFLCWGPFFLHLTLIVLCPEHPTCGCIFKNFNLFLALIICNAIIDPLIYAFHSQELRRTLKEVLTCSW
T3 sequence (P32245 whole entry): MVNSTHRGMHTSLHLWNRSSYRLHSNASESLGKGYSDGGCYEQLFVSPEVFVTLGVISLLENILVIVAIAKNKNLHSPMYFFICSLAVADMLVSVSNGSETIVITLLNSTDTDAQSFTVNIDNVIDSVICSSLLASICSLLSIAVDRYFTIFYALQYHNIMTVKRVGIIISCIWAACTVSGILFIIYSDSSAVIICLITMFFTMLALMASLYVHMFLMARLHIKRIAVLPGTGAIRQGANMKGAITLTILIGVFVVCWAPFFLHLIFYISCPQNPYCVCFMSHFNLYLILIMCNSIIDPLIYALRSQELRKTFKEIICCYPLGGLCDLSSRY

In the case of `CC(C)(C)c1ccc(-c2nc3cc(C(=O)N(CCc4ccccc4)Cc4ccccc4)ccc3n2C(CCCNC(=N)N)C(N)=O)cc1` (centres unmarked) [Compound A], on MC-3, the Emax was found to be 89% and the negative-log EC50 (pEC50) was 5.12. Further, the pEC50 at MC-1 was 6.33.
Consider `CCCCOc1ccc(-c2nc3cc(C(=O)NC(Cc4ccccc4)c4ccccc4)ccc3n2C(CCCNC(=N)N)C(N)=O)cc1` (centres unmarked) [Compound B], for which, on MC-3, the Emax is 115% and the pEC50 was 5.88. At MC-4, this compound gave a negative-log EC50 (pEC50) of 4.92.
Take `CC(C)c1ccc(-c2nc3cc(C(=O)NC(Cc4ccccc4)c4ccccc4)ccc3n2C(CCCNC(=N)N)C(N)=O)cc1` (centres unmarked) [Compound C]: on MC-3, the Emax came out at 92%. Besides, the negative logarithm of the EC50 (pEC50) on MC-3 was 5.85; on MC-4, 4.97.
Consider `CC(C)c1ccc(-c2nc3cc(C(=O)N(CCc4ccccc4)Cc4ccccc4)ccc3n2C(CCCNC(=N)N)C(N)=O)cc1` (centres unmarked) [Compound D], for which, on MC-3, the Emax came to 140% and the pEC50 is 5.77. The same compound gave a pEC50 at MC-4 of 5.55.
With `CC(C)(C)c1ccc(-c2nc3cc(C(=O)NC(Cc4ccccc4)c4ccccc4)ccc3n2C(CCCNC(=N)N)C(N)=O)cc1` (centres unmarked) [Compound E], on MC-3, the Emax worked out at 59%. Further, the negative-log EC50 (pEC50) on MC-3 is 5.17; on MC-1, 6.37; at MC-4 it was 4.70.
For `CC(C)(C)c1ccc(-c2nc3cc(C(=O)N4CC=C(c5ccc(Cl)cc5)CC4)ccc3n2[C@@H](CCCNC(=N)N)C(N)=O)cc1` [Compound K], at MC-3, the Emax is 91%. The pEC50 at MC-3 is 5.76; at MC-1 it was 6.42; at MC-4, 7.10.
On to `CC(C)(C)c1ccc(-c2nc3cc(C(=O)N(CCc4ccccc4)Cc4cccnc4)ccc3n2[C@@H](CCCNC(=N)N)C(N)=O)cc1` [Compound L], for which the Emax at MC-3 was determined as 350%. Moreover, the values for the negative-log EC50 (pEC50) on MC-3, on MC-1 and on MC-4 were 5.33, 6.66 and 5.20, respectively.
`CCCCOc1ccc(-c2nc3cc(C(=O)N(CCc4ccccc4)Cc4cccnc4)ccc3n2[C@@H](CCCNC(=N)N)C(N)=O)cc1` [Compound M]: at MC-3, the Emax is 89% and the pEC50 was 5.44.
On to `CCCCCc1ccc(-c2nc3cc(C(=O)N(CCc4ccccc4)Cc4ccccc4)ccc3n2[C@@H](CCCNC(=N)N)C(N)=O)cc1` [Compound N], for which, on MC-3, the Emax stood at 229% and the negative-log EC50 (pEC50) is 5.63. In addition, the pEC50 at MC-4 is 5.23.
For the compound `CC[C@H](C)[C@@H]1NC(=O)[C@H](Cc2ccc(O)cc2)NC(=O)[C@@H](N)CSSC[C@@H](C(=O)N2CCC[C@H]2C(=O)N[C@@H](CC(C)C)C(=O)NCC(N)=O)NC(=O)[C@H](CC(N)=O)NC(=O)[C@H](CCC(N)=O)NC1=O` [Oxytocin], the “response rate, % of animals” value in the test on male Sprague-Dawley rats [1] (oxytocin and HP-228 groups) is reported as 88%-100%. For the same compound, in the test with male Sprague-Dawley rats [1] (setting [3]), the erections per hour worked out at 3.9 erections per hour and the “responder rate of animals (rats responding out of rats)” value is listed as 7/8.
In the case of `CN1CCc2cccc3c2[C@H]1Cc1ccc(O)c(O)c1-3` [apomorphine], in the test on male Sprague-Dawley rats [2] (apomorphine and HP-228 groups), the “response rate, % of animals” value came to 100%. Besides, in the test with male Sprague-Dawley rats [2] (setting [4]), the erections per hour stood at 4.0 erections per hour and the “rate of animals responding” value is 6/6.
As to `CCN1CCCC1CNC(=O)c1cc(S(N)(=O)=O)ccc1OC` (centres unmarked) [sulpiride], the erections per hour in the test with male Sprague-Dawley rats [2] (setting [4]) is 0.0 erections per hour; in the test with male Sprague-Dawley rats [2] (setting [5]) it was 6.7 erections per hour; in the test on male Sprague-Dawley rats [2] (setting [6]), 1.5 erections per hour. The “rate of animals responding” value was 0/2 with male Sprague-Dawley rats [2] (setting [4]), 4/4 with male Sprague-Dawley rats [2] (setting [5]) and 3/4 in the test with male Sprague-Dawley rats [2] (setting [6]).
As for d(CH2)5-Tyr(Me^2)-Orn^8-Vasotocin, the erections per hour turned out to be 0.2 erections per hour in the test on male Sprague-Dawley rats [1] (setting [3]), 5.6 erections per hour in the test with male Sprague-Dawley rats [1] (setting [7]) and 1.0 erections per hour with male Sprague-Dawley rats [1] (setting [8]). Besides, the “responder rate of animals (rats responding out of rats)” value is 2/8 with male Sprague-Dawley rats [1] (setting [3]), 8/8 in the test on male Sprague-Dawley rats [1] (setting [7]) and 4/8 in the test with male Sprague-Dawley rats [1] (setting [8]).
